Like-named read-outs stand apart in the source and are kept apart here. Each block holds one compound with its values, some of them ahead of it.
How the values were obtained:
[1] = test system: TNF^ΔARE/+ model of Crohn's-like ileitis; details: TNFΔARE/+ ileum
Procedure: Mouse Experiments: All animal protocols were approved by the Vanderbilt University Animal Care and Use Committee and in accordance with NIH guidelines. Lrig1^CreERT2 and Atoh1^flox/flox strains, each in a C57BL/6 background, were purchased from Jackson Laboratory to generate Lrig1^CreERT2/+; Atoh1^fl/fl (AtohKO) animals Cre recombinase activity was induced in two- or three-month-old Lrig1^CreERT2/+; Atoh1^fl/fl and Lrig1^+/+; Atoh1^fl/fl males via intraperitoneal administration of 2 mg of tamoxifen (Sigma-Aldrich) for four consecutive days. Mice were sacrificed and tissues were harvested twenty-one days after the first injection. TNF^ΔARE/+ and wildtype littermates were sacrificed at four months of age after disease onset, followed by tissue collection Animal weights were recorded at regular intervals.
(§1) Mid-dose antibiotics and low-dose antibiotics were 0.75× and 0.25× of the original 1× concentration, respectively.
(§2) Immunofluorescence staining and imaging: Paraffin-embedded ileal tissues were section (5 μm) prior to deparaffinization, rehydration, and antigen retrieval using a citrate buffer (pH 6.0) for 20 minutes in a pressure cooker at 105° C., followed by a 20-minute cool down at room temperature (RT). Endogenous background signal was quenched by incubating tissue slides in 3% hydrogen peroxide for 10 minutes at RT. Tissue sections were blocked in staining buffer (3% bovine serum albumin/10% normal donkey serum) for 1 hour at RT prior to incubation with primary antibody overnight at RT. Antibodies used for immunofluorescence included those against LYZ1 (DAKO, 1:100, rabbit), MUC2 (Santa Cruz, 1:100, rabbit), MPO (DAKO, 1:100, rabbit), DCLK1 (Santa Cruz, 1:100, goat), FOXP3 (eBioscience, 1:50, rat), and GATA3 (Abcam, 1:50, rabbit). Sections were then incubated with AlexaFluor (AF)-555- or AF-647-conjugated secondary antibodies (Life Technologies, 1:500) for 1 hour at RT and Hoechst (1:10,000, Life Technologies) for 10 min at RT. For human tuft cell labeling, AF-488-conjugated pEGFR (Abcam, 1:100) and unconjugated COX2 (CST, 1:100, rabbit) were used. Slides were incubated with anti-rabbit AF-647-conjugated secondary antibody and stained with Hoechst. Imaging was performed using a Zeiss Axio Imager M2 microscope with Axiovision digital imaging system (Zeiss, Jena GmBH, Germany).
Image quantification: To quantify human tuft cells, the number of crypt and villus structures were counted per field of view (FOV) for each subject (approximately 15-20 FOVs per sample). Tuft cell number, as identified by pEGFR and COX co-labeling, was manually counted per FOV in a blinded fashion. Quantification of tuft cell number per epithelial structure (crypt and villus) was generated for each subject and then stratified by disease state (“normal” or “Crohn's disease”) based on the pathology report. Results were analyzed by t-test using Prism GraphPad. For MUC2 quantification, manual demarcation of the epithelial villi was performed in each FOV and a nuclear mask was generated based on Hoechst staining.

[2] = test system: ATOH1-independent tuft cells; details: antibiotic-treated AtohKO animals; small intestine
From the text: as §1

tuft cells = test system: tuft cells
Procedure: as §2

cytokine levels = test: Multiplex Luminex cytokine levels in short-term succinate-treated TNFΔARE/+ animals
AtohKO enteroids = test: IL-13 administration in enteroids; assay type: cell-based, mouse; details: level similar to IL-13 in control enteroids
Procedure: Enteroid Experiment: Ileal tissue was dissected and incubated in chelation buffer (3 mM EDTA/EGTA, 0.5 mM DTT, 1% P/S) at 4° C. for 45 minutes. The tissue was shaken in PBS and filtered through a 100 μm filter to isolate individual ileal crypts. The crypt suspension was centrifuged at 2.8×1000 RPM for 1½ minutes at 4° C. following which 10 μl of crypt pellet was resuspended in 300 μl of reduced growth factor Matrigel and embedded in a 24-well dish. Enteroids were cultured initially in IntestiCult Organoid Growth Medium (StemCell Technologies) supplemented with Primocin antimicrobial reagent (InvivoGen, 1:1000) for 4 days before being changed to Primocin-supplemented differentiation media. For ex vivo Cre-activation, Lrig1^CreERT2/+ Atoh1^fl/fl enteroids were treated overnight at 37° C. with either 1 μM 4-hydroxytamoxifen (Sigma-Aldrich) or vehicle (ethanol) in differentiation media. Enteroids were passaged the following day into 8-well chamber slides and, after 5 days, were fixed on ice using 4% PFA for immunofluorescence staining.
Enteroid Immunofluorescence Staining: Fixed enteroids were permeabilized with Triton X-100 for 30 min and blocked with 1% normal donkey serum (PBS) for 30 min at RT. Enteroids were stained with primary antibodies against LYZ1 (DAKO, 1:100, rabbit), MUC2 (Santa Cruz, 1:100, rabbit), and DCLK1 (Santa Cruz, 1:100, goat). […]

[3] = succinate-treated intestinal tissues
[4] = short-term succinate vs untreated controls

weight gain (wildtype animals treated with succinate): minimal weight gain
Compound: O=C(O)CCC(=O)O [succinate, succinic acid]
FOXP3+ T-regulatory cells ([1]; long-term (1 month) succinate treatment): significantly reduced | DCLK1+ tuft cells ([1]; succinate-treated): increased | stromal LYZ1 expression ([1]; succinate-treated): less stromal LYZ1 expression | depth of inflammation (0-4), pathological scoring ([1]; succinate-treated vs control): decreased mucosal destruction | extent of tissue injury (0-4), pathological scoring ([1]; succinate-treated vs control): decreased mucosal destruction | tuft cell expansion [2]: restored tuft cell expansion to microbiome-replete levels | expression of Idh3b, Idh3a, Sdha, Sdhd in the tuft cell lineage (TCA cycle genes; exogenous succinate treatment): induced | expression of genes such as Sdhc in the secretory lineage (TCA cycle genes; succinate treatment): significantly reduced | relative expression of Mdh2 and Sdhc in enterocytes (TCA cycle genes; untreated and succinate-treated enterocytes): constitutively high | tuft cell expansion (tuft cells; exogenous succinate administration, small intestine): induces tuft cell expansion | tuft cell expansion in the colon (tuft cells; succinate administration, colon): did not induce tuft cell expansion | GATA3+ cells (tuft cells; [3]): increased | major basic protein-positive eosinophils (tuft cells; [3]): increased | IL-17A (cytokine levels; short-term (<1 week) succinate): significant increase | IL-17F (cytokine levels; short-term (<1 week) succinate): significant increase | IL-22 levels (cytokine levels; short-term (<1 week) succinate): increased levels | IL-23 levels (cytokine levels; short-term (<1 week) succinate): significantly reduced | IL-27 expression (cytokine levels; short-term (<1 week) succinate): induced | IL-5 (cytokine levels; short-term succinate): increased | IL-9 (cytokine levels; short-term succinate): increased | IL-10 (cytokine levels; short-term succinate): increased | IL-4 levels (cytokine levels; [4]): significantly increased | IL-13 levels (cytokine levels; [4]): significantly increased | IL-25 levels (cytokine levels; [4]): significantly increased | TNF-α levels (cytokine levels; succinate treatment): did not result in decreased TNF-α levels | weight gain (TNFΔARE/+ animals, succinate in drinking water): failed to gain as much weight as untreated controls

Compound: IL-13: type 2 cytokine interleukin-13 administered to enteroids
tuft cell specification and expansion (AtohKO enteroids): induced tuft cell specification and expansion

From patent US20220047538A1, “TUFT CELL SPECIFICATION IN INFLAMMATORY ILEITIS” (VANDERBILT UNIVERSITY, priority 2019, published 2022)
